# Data as given in patent US12162857B2, “Antiviral compounds” (priority 2022, dated 2024).
# Test system: HMPV A2 TN/94-49
# Test: HMPV antiviral assay: LLC-MK2 cells, ATP-Lite readout
# Format: cell-based
# Details: LLC-MK2, 168 h, MOI 0.005, 7 days incubation
# Protocol: In vitro HMPV antiviral activity was evaluated using the clinical isolate A2 strain TN 94-49 and LLC-MK2 cells (ATCC #CCL-7), an immortalized kidney epithelial cell line from Macaca mulatta. Compounds were resuspended in dimethyl sulfoxide (DMSO) at 10 mM, serially diluted and added to a 384-well source plate. Subsequently, the compounds were diluted and transferred onto 384-well assay plates using the Echo-650 automated liquid handling system (Beckman Coulter, Indiana). The test compounds were assessed in duplicate at a top concentration of 2 μM followed by 2.5-fold serial dilutions to give a total of 10 concentration points. DMSO control wells were also included on the assay plates and were either infected or not, acting as positive and negative controls. A2 TN 94-49 virus infections were performed in-suspension with LLC-MK2 cells. The cells were washed twice with PBS and removed from the cell-culture flask with 0.25% trypsin-EDTA (Thermo Fisher Scientific, MA). The trypsin-EDTA was inactivated by resuspending in 2% fetal bovine serum (FBS) and OptiMEM (ThermoFisher Scientific, MA) containing 1% penicillin-streptomycin. Cells were pelleted by centrifuging for 5 minutes at 800 rpm, the supernatant was removed, and cells were re-suspended and washed in PBS plus 100 μg/mL CaCl2). This step was performed twice. Cells were then re-suspended in serum-free (SF)-OptiMEM containing 4 μg/mL TPCK-Trypsin (Sigma Aldrich, MO), 1% penicillin-streptomycin (ThermoFisher Scientific, MA) and 100 μg/mL CaCl2). Cells were counted and seeded at a density of 5,000 cells/well, 12.5 μL/well. Virus infections were done at a multiplicity of infection (MOI) of 0.005 with 12.5 μL added per well. Virus infections were performed in infection media which contained SF-OptiMEM, 100 μg/mL CaCl2) and 1% penicillin-streptomycin. HMPV viral stocks are suspended in infection media+5% glycerol, thus an equal volume of infection media+5% glycerol was added to uninfected wells to equalize the final % glycerol across all wells of the assay plate. The final concentration of TPCK-trypsin was 2 μg/mL. The assay plates were incubated at 37° C., 5% CO2 for 7 days. After 7 days incubation, 12.5 μL of ATP-Lite (PerkinElmer, MA) was added to each well and the raw luminescence values were determined using the Envision 2104 (Perkin Elmer, MA). The average of the raw luminescence values for the cells and virus only positive control wells was subtracted from all conditions tested and the percent cell health was determined by dividing these values by the average of the cells only negative control wells. EC50 values were then calculated by non-linear regression using a four-parameter curve logistic equation. The curve fit model employed was XLFit Dose Response One Site Model 200: y=(A+(B/(1+((x/C)^D)))), where A is the minimum y value, B is the maximum y value, C is the log EC50 value, and D is the slope factor. […] EC50 ranges are as follows: A<1 μM; B>1 μM.
row,SMILES,EC50
1,COc1cc(C(=O)NC[C@@](O)(c2cccc(F)c2)c2cc(C(C)(C)O)c(F)c(-c3ccc(F)c(Cl)c3Cl)n2)cc2sc(C)nc12 [Example 107],< 1000 nM
2,COc1cc(C(=O)NC[C@@](O)(c2ccccc2)c2cc(C(C)(C)O)c(F)c(-c3ccc(F)c(F)c3F)n2)cc2cn(C3CC3)nc12 [Example 84],< 1000 nM
3,COc1cc(C(=O)NC[C@](O)(c2cc(C(C)(C)O)c(F)c(-c3cc(Cl)c(F)cc3F)n2)c2cccs2)cc2cn(C3CC3)nc12 [Example 113],< 1000 nM
4,COc1cc(C(=O)NC[C@@](O)(c2cccc(F)c2)c2cc(C(C)(C)O)c(F)c(-c3cc(F)c(F)cc3F)n2)cc2cn(C(F)F)nc12 [Example 94],< 1000 nM
5,COc1cc(C(=O)NC[C@@](O)(c2ccccc2)c2cc(C(C)(C)O)c(F)c(-c3ccc(F)c(Cl)c3Cl)n2)cc2sc(C)nc12 [Example 71],< 1000 nM
6,COc1cc(C(=O)NC[C@@](O)(c2cccc(F)c2)c2cc(C(C)(C)O)c(F)c(-c3cccc(Cl)c3Cl)n2)cc2cn(C(F)F)nc12 [Example 99],< 1000 nM
7,CCC(O)(CC)c1cc([C@@](O)(CNC(=O)c2cc(OC)c3nn(C(F)F)cc3c2)c2ccccc2)nc(-c2cc(Cl)c(F)cc2F)c1F [Example 117],> 1000 nM
8,CC(C)(O)c1cc([C@@](O)(CNC(=O)c2cc(Cl)c3nn(C4CC4)cc3c2)c2cccc(F)c2)nc(-c2cccc(Cl)c2Cl)c1F [Example 100],> 1000 nM
9,COc1cc(C(=O)NC[C@@](O)(c2ccccc2)c2cc(C(C)(C)O)c(F)c(-c3ccc(F)c(Cl)c3F)n2)cc2cn(C(F)F)nc12 [Example 122],< 1000 nM
10,COc1cc(C(=O)NC[C@@](O)(c2ccccc2)c2cc(C(C)(C)O)c(F)c(-c3cccc(Cl)c3Cl)n2)cc2cn(C(F)F)nc12 [Example 80],< 1000 nM
11,COc1cc(C(=O)NC[C@@](O)(c2cccc(F)c2)c2cc(C(C)(C)O)c(F)c(-c3cc(Cl)c(F)cc3F)n2)cc2cn(C(F)F)nc12 [Example 92],< 1000 nM
12,COc1cc(C(=O)NC[C@@](O)(c2ccccc2)c2cc(C(C)(C)O)c(F)c(-c3cccc(Cl)c3Cl)n2)cc2cc(C3CC3)nn12 [Example 81],< 1000 nM
13,COc1cc(C(=O)NC[C@@](O)(c2cccc(F)c2)c2cc(C(C)(C)O)c(F)c(-c3cc(Cl)c(F)cc3F)n2)cc2sc(C)nc12 [Example 89],< 1000 nM
14,COc1cc(C(=O)NC[C@@](O)(c2cccc(F)c2)c2cc(C(C)(C)O)c(F)c(-c3cc(F)c(F)cc3F)n2)cc2cc(C3CC3)nn12 [Example 95],< 1000 nM
15,CC(C)(O)c1cc([C@@](O)(CNC(=O)c2cc(Cl)c3nn(C4CC4)cc3c2)c2ccccc2)nc(-c2ccc(F)c(Cl)c2Cl)c1F [Example 68],< 1000 nM
16,COc1cc(C(=O)NC[C@@](O)(c2ccccc2)c2nc(-c3cc(Cl)c(F)cc3F)c(F)c(C(C)(C)O)c2F)cc2cn(C(F)F)nc12 [Example 128],< 1000 nM
17,COc1cc(C(=O)NC[C@@](O)(c2cccc(F)c2)c2cc(C(C)(C)O)c(F)c(-c3ccc4c(c3Cl)OC(F)(F)O4)n2)cc2sc(C)nc12 [Example 108],< 1000 nM
18,COc1cc(C(=O)NC[C@@](O)(c2cccc(F)c2)c2cc(C(C)(C)O)c(F)c(-c3ccc4c(c3Cl)OC(F)(F)O4)n2)cc2cc(C3CC3)nn12 [Example 112],< 1000 nM
19,COc1cc(C(=O)NC[C@@](O)(c2cccc(F)c2)c2cc(C(C)(C)O)c(F)c(-c3cccc(Cl)c3Cl)n2)cc2sc(C)nc12 [Example 102],< 1000 nM
20,COc1cc(C(=O)NC[C@](O)(c2cc(C(C)(C)O)c(F)c(-c3ccc(F)c(Cl)c3F)n2)C2CC2)cc2cn(C(F)F)nc12 [Example 118],< 1000 nM
21,COc1cc(C(=O)NC[C@@](O)(c2cccc(F)c2)c2cc(C(C)(C)O)c(F)c(-c3ccc4c(c3Cl)OC(F)(F)O4)n2)cc2cn(C3CC3)nc12 [Example 109],< 1000 nM
22,CC(C)(O)c1cc([C@@](O)(CNC(=O)c2cc(Cl)c3nn(C4CC4)cc3c2)c2cccc(F)c2)nc(-c2ccc(F)c(Cl)c2Cl)c1F [Example 105],< 1000 nM
23,COc1cc(C(=O)NC[C@](O)(c2cc(C(C)(C)O)c(F)c(-c3cc(Cl)c(F)cc3F)n2)c2nccs2)cc2cn(C3CC3)nc12 [Example 58],< 1000 nM
24,CC(C)(O)c1cc([C@@](O)(CNC(=O)c2cc(Cl)c3nn(C4CC4)cc3c2)c2cccc(F)c2)nc(-c2ccc3c(c2Cl)OC(F)(F)O3)c1F [Example 110],> 1000 nM
25,COc1cc(C(=O)NC[C@](O)(c2cc(C(C)(C)O)c(F)c(-c3cc(Cl)c(F)cc3F)n2)c2cccs2)cc2sc(C)nc12 [Example 115],< 1000 nM
26,CC(C)(O)c1cc([C@@](O)(CNC(=O)c2cc(OC3CC3)c3nn(C4CC4)cc3c2)C2CC2)nc(-c2ccc(F)c(Cl)c2F)c1F [Example 121],< 1000 nM
27,COc1cc(C(=O)NC[C@](O)(c2cc(C(C)(C)O)c(F)c(-c3ccc(F)c(Cl)c3F)n2)C2CC2)cc2cn(C3(F)CC3)nc12 [Example 120],< 1000 nM

# Further lines, results first:
row,EC50,SMILES
1,> 1000 nM,COc1cc(C(=O)NC[C@@](O)(c2ccccc2)c2cc(C(C)(C)O)c(Cl)c(-c3ccc4c(c3Cl)OC(F)(F)O4)n2)cc2sc(C)nc12 [Example 135]
2,> 1000 nM,COc1cc(C(=O)NC[C@](O)(c2cc(C3(O)COC3)c(F)c(-c3ccc(F)cc3)n2)C2CC2)cc2cn(C3CC3)nc12 [Example 166]
3,< 1000 nM,CC(C)(O)c1cc(-c2ccc(F)c(Cl)c2Cl)nc([C@@](O)(CNC(=O)c2cc(Cl)c3nn(C4CC4)cc3c2)c2ccccc2)c1 [Example 153]
4,> 1000 nM,CNC(=O)c1cc([C@@](O)(CNC(=O)c2cc(OC)c3nn(C4CC4)cc3c2)c2ccccc2)nc(-c2cc(Cl)c(F)cc2F)c1F [Example 192]
5,< 1000 nM,COc1cc(C(=O)NC[C@@](O)(c2ccccc2)c2cc(C(C)(C)O)c(Cl)c(-c3ccc4c(c3Cl)OC(F)(F)O4)n2)cc2cc(C3CC3)nn12 [Example 155]
6,> 1000 nM,COc1cc(C(=O)NC[C@](O)(c2ccc(F)c(-c3cc(Cl)c(F)cc3F)n2)C2CC2)cc2cc(Cl)c(C)nc12 [Example 176]
7,> 1000 nM,CC(C)(O)c1cc([C@@](O)(CNC(=O)c2cc(Cl)c3nn(C4CC4)cc3c2)c2ccccc2)nc(-c2cccc(Cl)c2Cl)c1Cl [Example 141]
8,> 1000 nM,COc1cc(C(=O)NC[C@@](O)(c2ccccc2)c2cc(C(C)(C)F)c(F)c(-c3cc(Cl)c(F)cc3F)n2)cc2cn(C(F)F)nc12 [Example 182]
9,< 1000 nM,[2H]C([2H])([2H])C(O)(c1cc([C@@](O)(CNC(=O)c2cc(OC)c3nn(C4CC4)cc3c2)C2CC2)nc(-c2cc(Cl)c(F)cc2F)c1F)C([2H])([2H])[2H] [Example 186]
10,< 1000 nM,CC(C)(O)c1cc(-c2cccc(Cl)c2Cl)nc([C@@](O)(CNC(=O)c2cc(Cl)c3nn(C4CC4)cc3c2)c2ccccc2)c1 [Example 149]
11,> 1000 nM,COc1cc(C(=O)NC[C@@](O)(c2ccccc2)c2cc(C(C)(C)F)c(F)c(-c3cc(Cl)c(F)cc3F)n2)cc2cc(C3CC3)nn12 [Example 181]
12,< 1000 nM,COc1cc(C(=O)NC[C@@](O)(c2ccccc2)c2cc(C(C)(C)O)cc(-c3ccc4c(c3Cl)OC(F)(F)O4)n2)cc2cn(C3CC3)nc12 [Example 156]
13,< 1000 nM,COc1cc(C(=O)NC[C@@](O)(c2ccccc2)c2cc(C(C)(C)O)cc(-c3cccc(Cl)c3Cl)n2)cc2cn(C3CC3)nc12 [Example 148]
14,< 1000 nM,COc1cc(C(=O)NC[C@@](O)(c2ccccc2)c2cc(C(C)(C)C(N)=O)c(F)c(-c3cc(Cl)c(F)cc3F)n2)cc2cn(C3CC3)nc12 [Example 160]
